# Assay results as given in patent US9556135B2, “Amino-dihydrothiazine and amino-dioxido dihydrothiazine compounds as beta-secretase antagonists and methods of use” (Amgen Inc., priority 2012, dated 2017).
# What was measured:
# Aβ in lumbar CSF = conditions: after oral dosing of 30 or 90 mg, healthy volunteers; cited from earlier work
# [1] = system: pigment epithelium of the rat's eye; conditions: higher compound dose given for three months; cited from earlier work
# [2] = system: Aβ40 in conditioned medium of cells stably expressing Amyloid Precursor Protein (APP); assay: In vitro BACE cell-based assay (HEK cell assay), Aβ40 sandwich ELISA
# Description: In Vitro BACE Cell-Based Assay
# The cell-based assay measures inhibition or reduction of Aβ40 in conditioned medium of test compound treated cells expressing amyloid precursor protein.
# Cells stably expressing Amyloid Precursor Protein (APP) were plated at a density of 40K cells/well in 96 well plates (Costar). The cells were cultivated for 24 hours at 37° C. and 5% CO2 in DMEM supplemented with 10% FBS. The test compounds were then added to cells in 10-point dose response concentrations with the starting concentration being either 100 μM or 10 μM. The compounds were diluted from stock solutions in DMSO and the final DMSO concentration of the test compounds on cells was 0.1%. After 24 h of incubation with the test compounds the supernatant conditioned media was collected and the Aβ 40 levels were determined using a sandwich ELISA. The IC50 of the compound was calculated from the percent of control or percent inhibition of Aβ 40 as a function of the concentration of the test compound.
# The sandwich ELISA to detect Aβ 40 was performed in 96 well microtiter plates, which were pre-treated with goat anti-rabbit IgG (Pierce). The capture and detecting antibody pair that were used to detect Aβ 40 from cell supernatants were affinity purified pAb40 (Biosource) and biotinylated 6E10 (Signet Labs Inc.), respectively. The optimal concentration for the pAb40 antibody was 3 μg/ml in Superblock/TBS (Pierce) that was supplemented with 0.05% Tween 20 (Sigma).
# Cellular supernatants were incubated with the capture antibody for 3 h at 4° C., followed by 3 wash steps in TBS-tween (0.05%). The detecting antibody incubation was for 2 h at 4° C., again followed by the wash steps as described previously. The final readout of the ELISA is Time-Resolved Fluorescence (counts per minute) using Delfia reagents Streptavidin-Europium and Enhancement solutions (Perkin Elmer) and the Victor 2 multilabel counter (Perkin Elmer).
# [3] = target: Beta Secretase enzyme (BACE1) (Homo sapiens (Human), UniProt P56817); assay: In vitro enzymatic BACE FRET assay; format: biochemical
# Sequence of Beta Secretase enzyme (BACE1) (P56817 46-501): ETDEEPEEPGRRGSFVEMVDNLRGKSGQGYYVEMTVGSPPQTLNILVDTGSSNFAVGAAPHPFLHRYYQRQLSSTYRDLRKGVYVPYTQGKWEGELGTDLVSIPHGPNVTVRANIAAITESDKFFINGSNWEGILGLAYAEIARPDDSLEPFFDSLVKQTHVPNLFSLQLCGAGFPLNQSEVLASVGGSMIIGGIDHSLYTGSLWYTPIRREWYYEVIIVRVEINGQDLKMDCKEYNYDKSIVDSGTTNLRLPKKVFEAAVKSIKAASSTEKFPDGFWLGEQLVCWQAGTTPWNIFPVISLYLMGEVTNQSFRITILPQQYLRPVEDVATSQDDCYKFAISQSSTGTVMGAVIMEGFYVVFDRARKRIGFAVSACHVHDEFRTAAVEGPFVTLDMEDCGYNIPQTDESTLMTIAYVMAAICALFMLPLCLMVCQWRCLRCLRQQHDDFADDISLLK
# Description: In Vitro Enzymatic BACE FRET (Fluorescence Resonance Energy Transfer) Assay (Enzyme Assay Data in the Example Tables I and II)
# The assay buffer used in this screen is 0.05 M acetate, pH 4.2, 10% DMSO final, 100 uM genapol (which is a nonionic detergent, below its Critical Micelle Concentration). […] This assay is effectively started by the addition of FRET substrate (50 nM) and the combination is incubated for one hour. The FRET assay is terminated with by addition of Tris buffer, which raises the pH to neutrality, and the fluorescence is determined. The FRET substrate is a peptide with commercially available fluorophore and quencher, on opposite sides of the BACE cleavage site. Proteolytic cleavage of the FRET substrate releases quenching of fluorescence (excitation […] and […]).
# Cathepsin D (Cat D) = Cathepsin D (Cat D) (Homo sapiens (Human), UniProt P07339); assay: In vitro enzymatic Cathepsin D (Cat D) FRET assay; format: biochemical; conditions: read-out: CatD IC50
# Sequence of Cathepsin D (Cat D) (P07339 65-412, species assumed): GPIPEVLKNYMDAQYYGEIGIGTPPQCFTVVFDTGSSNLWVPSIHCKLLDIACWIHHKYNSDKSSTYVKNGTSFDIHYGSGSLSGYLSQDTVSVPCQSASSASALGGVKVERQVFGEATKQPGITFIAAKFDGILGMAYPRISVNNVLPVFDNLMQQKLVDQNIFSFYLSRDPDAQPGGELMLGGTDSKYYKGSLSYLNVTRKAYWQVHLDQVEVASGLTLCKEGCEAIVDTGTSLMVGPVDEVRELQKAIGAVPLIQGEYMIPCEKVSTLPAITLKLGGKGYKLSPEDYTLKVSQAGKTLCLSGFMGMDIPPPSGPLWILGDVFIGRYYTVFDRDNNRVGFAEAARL
# Description: In Vitro Enzymatic Cathepsin D (Cat D) FRET (Fluorescence Resonance Energy Transfer) Assay Recombinant Cat D was expressed in CHO cells. […] The Cat D enzyme (9 nM) is pre-incubated for one hour with inhibitors, typically in about 1 uL of DMSO according to a serial dilution, is added thereto. […] The FRET assay is terminated with by addition of Tris buffer, which raises the pH to neutrality, and the fluorescence is determined. The FRET substrate is a peptide with commercially available fluorophore and quencher, on opposite sides of the BACE cleavage site. The Cat D substrate peptide sequence is based on sequence #1 of Table 1 from Gulnik et al. […] Where available, the in-vitro Cat D FRET assay data for each of the Examples, conducted by the first procedure, is provided.
"IC50 ([2]; average IC50, cell assay) [nM]","IC50 ([3]; average IC50, enzyme assay) [nM]",IC50 (Cathepsin D (Cat D)) [nM],IC50 ([2]; average IC50) [nM],IC50 ([3]; average IC50) [nM],Molecule,further results
–,–,–,–,–,"C[C@@]1(c2cc(-c3cncnc3)c(F)cc2F)CCSC(N)=N1 [LY2811376, (S)-4-(2,4-difluoro-5-pyrimidin-5-yl-phenyl)-4-methyl-5,6-dihydro-4H-[1,3]thiazin-2-ylamine]",Aβ reductions in lumbar CSF (Aβ in lumbar CSF): Prominent and long-lasting Aβ reductions in lumbar CSF
–,–,–,–,–,C[C@@]1(c2cc(-c3cncnc3)c(F)cc2F)CCSC(N)=N1 [LY 2811376],rat toxicology finding [1]: damaged the pigment epithelium of the rat's eye
33,1,220000,–,–,"N-(3-((4aR,7aS)-3-amino-2,2-dimethyl-1,1-dioxido-7,7a-dihydro-2H-furo[3,4-b][1,4]thiazin-4a(5H)-yl)-4-fluorophenyl)-5-chloro-3-methyl-2-pyridinecarboxamide,N-(3-((4aS,7aR)-3-amino-2,2-dimethyl-1,1-dioxido-7,7a-dihydro-2H-furo[3,4-13][1,4]thiazin-4a(5H)-yl)-4-fluorophenyl)-5-chloro-3-methyl-2-pyridinecarboxamide [Example 427]",–
37.3,9.71,309000,–,–,"N-(3-((4aR,7aS)-3-amino-2,2-dimethyl-1,1-dioxido-7,7a-dihydro-2H-furo[3,4-b][1,4]thiazin-4a(5H)-yl)-4-fluorophenyl)-5-methoxy-3-methyl-2-pyridinecarboxamide,N-(3-((4aS,7aR)-3-amino-2,2-dimethyl-1,1-dioxido-7,7a-dihydro-2H-furo[3,4-13][1,4]thiazin-4a(5H)-yl)-4-fluorophenyl)-5-methoxy-3-methyl-2-pyridinecarboxamide [Example 428]",–
–,–,363000,77.9,1.31,"N-(3-((7R)-9-amino-7-(fluoromethyl)-5,5-dioxido-5-thia-8-azaspiro[3.5]non-8-en-7-yl)-4-fluorophenyl)-3-chloro-1,7-naphthyridin-8-amine,N-(3-((7S)-9-amino-7-(fluoromethyl)-5,5-dioxido-5-thia-8-azaspiro[3.5]non-8-en-7-yl)-4-fluorophenyl)-3-chloro-1,7-naphthyridin-8-amine [Example 243]",–
–,–,170000,11.9,2.3,"N-(3-((7R)-9-amino-7-(fluoromethyl)-5,5-dioxido-5-thia-8-azaspiro[3.5]non-8-en-7-yl)-4-fluorophenyl)-5-(difluoromethoxy)-3-methyl-2-pyridinecarboxamide,N-(3-((7S)-9-amino-7-(fluoromethyl)-5,5-dioxido-5-thia-8-azaspiro[3.5]non-8-en-7-yl)-4-fluorophenyl)-5-(difluoromethoxy)-3-methyl-2-pyridinecarboxamide [Example 410]",–
